The subject of one test is HCV replicon genotype 1a. The test is described as follows: HCV replicon assay, genotype 1a (cell ELISA for replicon-encoded NS3/4A). Type of test: cell-based, hepatitis C virus (HCV). The note with it: Hepatitis C virus, 96 h, read-out: 1a IC50 (nM), genotype 1a replicon cells, 96 hours incubation, NS3/4A ELISA readout, % of DMSO control. Here is the method:
Measurement of inhibition by compounds was performed using the HCV replicon system. Several different replicons encoding different HCV genotypes or mutations were used. In addition, potency measurements were made using different formats of the replicon assay, including different ways of measurements and different plating formats. See Jan M. Vrolijk et al., A replicons-based bioassay for the measurement of interferons in patients with chronic hepatitis C, 110 J. V[…] 201 (2003); Steven S. Carroll et al., Inhibition of Hepatitis C Virus RNA Replication by 2′-Modified Nucleoside Analogs, 278(14) J. BIOLOGICAL CHEMISTRY 11979 (2003). However, the underlying principles are common to all of these determinations, and are outlined below.
(§1) Stable neomycin phosphotransferase encoding replicons-harboring cell lines were used, so all cell lines were maintained under G418 selection prior to the assay. Potency was determined using a cell ELISA assay with an antibody to the replicons encoded NS3/4a protease. See Caterina Trozzi et al., In Vitro Selection and Characterization of Hepatitis C Virus Serine Protease Variants Resistant to an Active-Site Peptide Inhibitor, 77(6) J. Virol. 3669 (2003). To initiate an assay, replicon cells were plated in the presence of a dilution series of test compound in the absence of G418. Typically, the assays were performed in a 96-well plate formate for manual operation, or a 384-well plate format for automated assay. Replicon cells and compound were incubated for 96 hours. At the end of the assay, cells were washed free of media and compound, and the cells were then lysed. RNA was quantified indirectly through detection of replicon-encoded NS3/4A protein levels, through an ELISA-based assay with an antibody specific for NS3/4A. IC50 determinations were calculated as a percentage of a DMSO control by fitting the data to a four-parameter fit function and the data obtained is provided in the table below.
(§2) Data for selected compounds of the present invention was obtained for genotypes 1a and 1b using this method and is provided in the table below: […]

Another test has as its system HCV replicon genotype 1b. As to the kind of experiment: HCV replicon assay, genotype 1b (cell ELISA for replicon-encoded NS3/4A). Type of test: cell-based, hepatitis C virus (HCV). Particulars: Hepatitis C virus, 96 h, read-out: 1b IC50 (nM), genotype 1b replicon cells, 96 hours incubation, NS3/4A ELISA readout, % of DMSO control. As for the experimental part:
The HCV NS5B inhibitory activity of the present compounds may be tested using assays known in the art. The HCV NS5B polymerase inhibitors described herein have activities in a genotype 1b replicon assay as described in the Examples. The assay is performed by incubating a replicon harboring cell-line in the presence of inhibitor for a set period of time and measuring the effect of the inhibitor on HCV replicon replication either directly by quantifying replicon RNA level, or indirectly by measuring enzymatic activity of a co-encoded reporter enzyme such as luciferase or β-lactamase. By performing a series of such measurements at different inhibitor concentrations, the effective inhibitory concentration of the inhibitor (EC50 or EC90) is determined See Jan M. Vrolijk et al., A replicons-based bioassay for the measurement of interferons in patients with chronic hepatitis C, 110 J. VIROLOGICAL METHODS 201 (2003). Such assays may also be run in an automated format for high through-put screening. See Paul Zuck et al., A cell-based β-lactamase reporter gene assay for the identification of inhibitors of hepatitis C virus replication, 334 ANALYTICAL BIOCHEMISTRY 344 (2004).
Measurement of inhibition by compounds was performed using the HCV replicon system. Several different replicons encoding different HCV genotypes or mutations were used. In addition, potency measurements were made using different formats of the replicon assay, including different ways of measurements and different plating formats. See Jan M. Vrolijk et al., A replicons-based bioassay for the measurement of interferons in patients with chronic hepatitis C, 110 J. VIROLOGICAL METHODS 201 (2003); Steven S. Carroll et al., Inhibition of Hepatitis C Virus RNA Replication by 2′-Modified Nucleoside Analogs, 278(14) J. BIOLOGICAL CHEMISTRY 11979 (2003). However, the underlying principles are common to all of these determinations, and are outlined below.
as §1, §2

`CNC(=O)c1c(-c2ccc(F)cc2F)oc2cc(N(C)S(C)(=O)=O)c(-c3ccc4nc(CN5CC(F)C5)n5c6cccc(F)c6cc5c4n3)cc12` [Example 37]: the values for the IC50 in the test with HCV replicon genotype 1a and in the test on HCV replicon genotype 1b were 5.26 nM and 7.26 nM, respectively.
For `CNC(=O)c1c(-c2ccc(F)cc2)oc2cc(N(C)S(C)(=O)=O)c(-c3ccc4nc(CN5CC6CC6C5)n5c6cccc(F)c6cc5c4n3)cc12` (stereo not drawn) [Example 102] the same measures were 7.03 nM and 11.8 nM.
Taken in the same sequence, the figures for `CNC(=O)c1c(-c2ccc(F)cc2)oc2cc(N(C)S(C)(=O)=O)c(-c3ccc4nc(CN5CCC5)n5c6cccc(F)c6cc5c4n3)cc12` [Example 84] were 1.34 nM and 1.96 nM.
As to `CNC(=O)c1c(-c2ccc(C(F)F)nc2)oc2cc(N(C)S(C)(=O)=O)c(-c3ccc4ncn5c6cccc(F)c6cc5c4n3)cc12` [Example 3], the IC50 stood at 3.38 nM in the test on HCV replicon genotype 1a and 4.12 nM in the test with HCV replicon genotype 1b.
As to `CNC(=O)c1c(-c2ccc(F)cc2)oc2cc(N(C)S(C)(=O)=O)c(-c3cc4c(cn3)ncn3c5cccc(F)c5cc43)cc12` [Example 74, 2-(4-fluorophenyl)-5-(11-fluoropyrido[3′,4′:4,5]pyrimido[1,6-a]indol-2-yl)-N-methyl-6-(N-methylmethylsulfonamido)benzofuran-3-carboxamide], the results for the IC50 with HCV replicon genotype 1a and in the test on HCV replicon genotype 1b were 1.21 nM and 3.07 nM, respectively.
As for `CNC(=O)c1c(-c2ccc(F)cc2F)oc2cc(N(C)S(C)(=O)=O)c(-c3ccc4nc(CN5CCC(F)(F)CC5)n5c6cccc(F)c6cc5c4n3)cc12` [Example 47], the IC50 in the test on HCV replicon genotype 1a was 9.67 nM; with HCV replicon genotype 1b it was 11.2 nM.
Taken in the same sequence, the figures for `CNC(=O)c1c(-c2ccc(F)cc2F)oc2cc(N(C)S(C)(=O)=O)c(-c3ccc4c(n3)-c3cc5c(F)cccc5n3CN4)cc12` [Example 58] were 1.68 nM and 2.76 nM.
For `CNC(=O)c1c(-c2ccc(F)cc2)oc2cc(N(C)S(C)(=O)=O)c(-c3ccc4nc(CN5CC(C)(OC)C5)n5c6cccc(C#N)c6cc5c4n3)cc12` [Example 126] the same measures were 2.24 nM and 2.72 nM.
Taken in the same sequence, the figures for `CNC(=O)c1c(-c2ccc(F)cc2)oc2cc(N(C)S(C)(=O)=O)c(-c3ccc4nc(CN5CCC(F)(C#N)CC5)n5c6cccc(F)c6cc5c4n3)cc12` [Example 106] were 7.25 nM and 8.2 nM.
As for `CNC(=O)c1c(-c2ccc(F)cc2)oc2cc(N(C)S(C)(=O)=O)c(-c3ccc4nc(CN5CC(O)C5)n5c6cccc(F)c6cc5c4n3)cc12` [Example 77], the IC50 worked out at 5.26 nM in the test on HCV replicon genotype 1a and 5.61 nM in the test with HCV replicon genotype 1b.
For the compound `CCOP(=O)(Cc1nc2ccc(-c3cc4c(C(=O)NC)c(-c5ccc(F)cc5)oc4cc3N(C)S(C)(=O)=O)nc2c2cc3c(F)cccc3n12)OCC` [Example 49, diethyl ((11-fluoro-2-(2-(4-fluorophenyl)-3-(methylcarbamoyl)-6-(N-methylmethylsulfonamido)benzofuran-5-yl)pyrido[3′,2′:4,5]pyrimido[1,6-a]indol-6-yl)methyl)phosphonate], the IC50 in the test on HCV replicon genotype 1a was 2.78 nM; in the test with HCV replicon genotype 1b, 4.88 nM.
Taken in the same sequence, the figures for `CNC(=O)c1c(-c2ccc(F)cc2)oc2cc(N(C)S(C)(=O)=O)c(-c3ccc4nc(CN5CCC(C)(O)CC5)n5c6cccc(F)c6cc5c4n3)cc12` [Example 93] were 4.19 nM and 7.78 nM.
In the case of `CNC(=O)c1c(C(=O)N2CC(F)(F)C2)oc2cc(N(C)S(C)(=O)=O)c(-c3ccc4ncn5c6cccc(F)c6cc5c4n3)cc12` [Example 51], the IC50 is 39.1 nM with HCV replicon genotype 1a and 32 nM in the test with HCV replicon genotype 1b.
For `CNC(=O)c1c(-c2ccc(F)cc2)oc2cc(N(C)S(C)(=O)=O)c(-c3ccc4nc(CN5CCOCC5)n5c6cccc(F)c6cc5c4n3)cc12` [Example 90] the same measures were 3.62 nM and 3.66 nM.
For `CNC(=O)c1c(-c2ccc(F)cc2)oc2cc(N(C)S(C)(=O)=O)c(-c3ccc4nc(CN5CC(C)(F)C5)n5c6cccc(F)c6cc5c4n3)cc12` [Example 81] the same measures were 3.24 nM and 3.28 nM.
Taken in the same sequence, the figures for `CNC(=O)c1c(-c2ccc(F)cc2F)oc2cc(N(C)S(C)(=O)=O)c(-c3ccc4nc(CN5CCC[C@@H]5C(F)(F)F)n5c6cccc(F)c6cc5c4n3)cc12` [Example 144] were 13.3 nM and 14.6 nM.
As for `CNC(=O)c1c(-c2ccc(F)cc2)oc2cc(N(C)S(C)(=O)=O)c(-c3ccc4nc(CN5CC(C)(OC)C5)n5c6cccc(F)c6cc5c4n3)cc12` [Example 104], the IC50 with HCV replicon genotype 1a was determined as 2.31 nM; in the test on HCV replicon genotype 1b, 5.23 nM.
Taken in the same sequence, the figures for `CNC(=O)c1c(-c2ccc(F)cc2F)oc2cc(N(C)S(C)(=O)=O)c(-c3ccc4nc(CN5CCN(C)CC5)n5c6cccc(F)c6cc5c4n3)cc12` [Example 147] were 3.48 nM and 3.99 nM.
For `CNC(=O)c1c(-c2ccc(F)cc2)oc2cc(N(C)S(C)(=O)=O)c(-c3ccc4nc(CN5CC[C@H](OC)C5)n5c6cccc(F)c6cc5c4n3)cc12` [Example 91] the same measures were 3.58 nM and 6.54 nM.
Regarding `CNC(=O)c1c(-n2ccccc2=O)oc2cc(N(C)S(C)(=O)=O)c(-c3ccc4nc(CN5CC(F)C5)n5c6cccc(F)c6cc5c4n3)cc12` [Example 29], the IC50 was determined as 2.21 nM in the test with HCV replicon genotype 1a and 3.63 nM with HCV replicon genotype 1b.
Taken in the same sequence, the figures for `CNC(=O)c1c(-c2ccc(F)cc2F)oc2cc(N(C)S(C)(=O)=O)c(-c3ccc4nc(CN5CC[C@H](F)C5)n5c6cccc(F)c6cc5c4n3)cc12` [Example 45] were 4.43 nM and 4.29 nM.
Take `CNC(=O)c1c(-c2ccc(F)cc2F)oc2cc(N(C)S(C)(=O)=O)c(-c3ccc4nc(CN5CCC(F)(C#N)CC5)n5c6cccc(F)c6cc5c4n3)cc12` [Example 141]: the results for the IC50 in the test on HCV replicon genotype 1a and in the test on HCV replicon genotype 1b were 5.48 nM and 5.99 nM, respectively.
Taken in the same sequence, the figures for `CNC(=O)c1c(-c2ccc(F)cc2)oc2cc(N(C)S(C)(=O)=O)c(-c3ccc4nc(N)n5c6cccc(F)c6cc5c4n3)cc12` [Example 25, 5-(6-amino-11-fluoropyrido[3′,2′:4,5]pyrimido[1,6-a]indol-2-yl)-2-(4-fluorophenyl)-N-methyl-6-(N-methylmethylsulfonamido)benzofuran-3-carboxamide] were 245 nM and 145 nM.
Take `CNC(=O)c1c(-c2ccc(F)cc2F)oc2cc(N(C)S(C)(=O)=O)c(-c3ccc4nc(CN5CC(F)(F)C5)n5c6cccc(F)c6cc5c4n3)cc12` [Example 48]: the IC50 in the test with HCV replicon genotype 1a was 2.82 nM; in the test on HCV replicon genotype 1b, 3.04 nM.
Consider `CNC(=O)c1c(-n2ccc(C)cc2=O)oc2cc(N(C)S(C)(=O)=O)c(-c3ccc4nc(CN5CC(C)(C#N)C5)n5c6cccc(F)c6cc5c4n3)cc12` [Example 36], for which the IC50 worked out at 2.49 nM in the test with HCV replicon genotype 1a and 3.21 nM in the test with HCV replicon genotype 1b.
`CNC(=O)c1c(-c2ccc(OC)nc2)oc2cc(N(C)S(C)(=O)=O)c(-c3ccc4nc(CN5CC(F)C5)n5c6cccc(F)c6cc5c4n3)cc12` [Example 34]: the IC50 with HCV replicon genotype 1a turned out to be 2.43 nM; in the test with HCV replicon genotype 1b it was 4.66 nM.
Taken in the same sequence, the figures for `CNC(=O)c1c(-c2ccc(F)cc2)oc2cc(N(C)S(C)(=O)=O)c(-c3ccc4nc(CN5CCN(C(C)=O)CC5)n5c6cccc(F)c6cc5c4n3)cc12` [Example 105] were 2.6 nM and 3.79 nM.
